Publication PMC6826616, “Topical 2′-Hydroxyflavanone for Cutaneous Melanoma” (Cancers, 2019)

Assays:
[1] = Blood counts and serum chemistry after topical 2HF; format: in vivo, B16-F0 melanoma-bearing C57B mice; details: topical 12 mg 2HF/0.1 mL PLO gel
Procedure: Blood samples were collected from representative mice from the control and 2HF-treated with 12 mg/0.1 mL PLO gel topically each day for 8 weeks just before euthanasia. These samples were used for hematologic, hepatic, renal, and metabolic profiling. A Hemavet instrument (Drew Scientific, Dallas, TX, USA) was used for determination of hematologic parameters.

[2] = tested on: B16-F10 cells; assay: Western blot densitometry of whole-cell lysates, B16-F10; format: cell-based, mouse; details: 48 h
Procedure: […] Cells were harvested and lysates prepared for Western blot using a radioimmunoprecipitation assay (RIPA) buffer with a protease (complete ULTRA) and phosphatase inhibitor (PhosSTOP) cocktail (Sigma-Aldrich, St. Louis, MO, USA). […] Proteins were transferred to nitrocellulose membrane, and nonspecific binding was minimized with 1× clear milk blocking buffer +0.1%TWEEN 20 (ThermoFisher Scientific, Waltham, MA, USA) for 1 h at room temperature. All primary antibodies were purchased from Santa Cruz Biotechnology except mouse monoclonal, TNF-α (Invitrogen), (1:1000), in 1× clear milk +0.1% TWEEN 20 overnight at 4 °C. Secondary antibody from Santa Cruz Biotech (1:2000) was incubated for 1 h at room temperature in 1× clear milk, 0.1% TWEEN 20.
(§1) Supplemental data for Fig. 2C. Caspase 9
(§2) Numbers below of each blot represent protein 1.0 1.2 0.5 ND ND ND ND ND ND band intensity ratios to adequate controls after Procaspase 3 […]
(§3) RAL BP- 1 and apoptosis enzymes in SK-Mel-24, B16F0 17kD Active caspase 3 […]
(§4) 48h. Cells were plated in complete growth medium. After overnight, cells were treated with different doses of 2HF, and PARP-1 incubated for 48h. Total cell lysates (40 µg/lane) were […]
(§5) buffer. Proteins were transferred to nitrocellulose C-terminal cleaved membrane, nonspecific binding was done in 1X clear milk, PARP~89kDa
(§6) +0.1%T20 (Invitrogen) for 1h at room temperature. All primary antibodies were from (mouse monoclonal, 1.0 0.8 0.9 1.0 0.9 ND 1.0 1.1 ND Santacruze Biotechnology (1:1000), in 1X clear milk
(§7) +0.1%T20 overnight in 40C. Secondary antibody from N-terminal cleaved
(§8) Santacruze Biotech (1:2000) for 1h at room temperature in PARP~24kDa […]
(§9) Supplemental Figure 7 Supplemental data for Fig. 5.
(§10) B16F0 SK-Mel- 24 B16F10Numbers below of each blot represent protein band intensity ratios to adequate
(§11) TNF-α Full blots are presented in next 4 figures. […]
(§12) cells after treatment with 50, 100 µM 2HF for 48h.
(§13) Raf-1 Raf-1 Cells were plated in complete growth medium. After overnight, cells were treated with different doses of 2HF, […]
(§14) loaded on 4- 12% bis-tris gel, with 1X MES gel running p-MEK-1 p-MEK-1 buffer. Proteins were transferred to nitrocellulose membrane, nonspecific binding was done in 1X clear
(§15) All primary antibodies were from (mouse monoclonal, MEKK15 MEKK15 except TNF-α (American Hamster), Santacruze
(§16) 1.0 0.9 0.1 ND ND ND overnight in 40C. Secondary antibody from Santacruze Biotech (1:2000) for 1h at room temperature in 1X clear […]

[3] = tested on: SK-MEL-24 cells; assay: Western blot densitometry of whole-cell lysates, SK-MEL-24; format: cell-based, human; details: 48 h
Procedure: as §1, §2, §3, §4, §5, §6, §7, §8, §9, §10, §11, §12, §13, §14, §15, §16

[4] = tested on: B16-F0 cells; assay: Western blot densitometry of whole-cell lysates, B16-F0; format: cell-based, mouse; details: 48 h
Procedure: B16-F0, […], and SK-MEL-24 cells were treated for 24 h with vehicle, 50 µM, and 100 µM 2HF. Cells were harvested and lysates prepared for Western blot using a radioimmunoprecipitation assay (RIPA) buffer with a protease (complete ULTRA) and phosphatase inhibitor (PhosSTOP) cocktail (Sigma-Aldrich, St. Louis, MO, USA). Total cell lysates (25 µg/lane) were loaded on 4–12% bis-tris gels, with MES gel running buffer. Proteins were transferred to nitrocellulose membrane, and nonspecific binding was minimized with 1× clear milk blocking buffer +0.1%TWEEN 20 (ThermoFisher Scientific, Waltham, MA, USA) for 1 h at room temperature. All primary antibodies were purchased from Santa Cruz Biotechnology except mouse monoclonal, TNF-α (Invitrogen), (1:1000), in 1× clear milk +0.1% TWEEN 20 overnight at 4 °C. Secondary antibody from Santa Cruz Biotech (1:2000) was incubated for 1 h at room temperature in 1× clear milk, 0.1% TWEEN 20.
as §1, §2, §3, §4, §5, §6, §7, §8, §9, §10, §11, §12, §13, §14, §15, §16

O=C1CC(c2ccccc2O)Oc2ccccc21 (stereo not shown) [2HF, 2′-hydroxyflavanone]
adverse effects on blood counts, renal function, or liver enzymes [1]: no adverse effects | Active caspase 3 band intensity ratio to control (normalized against β-Actin) ([2]; B16F10, 50 µM 2HF): 1.0 | C-terminal cleaved PARP~89kDa band intensity ratio to control (normalized against β-Actin) ([2]; B16F10, 50 µM 2HF): 1.1 | N-terminal cleaved PARP~24kDa band intensity ratio to control (normalized against β-Actin) ([2]; B16F10, 50 µM 2HF): 1.1 | PARP-1 band intensity ratio to control (normalized against β-Actin) ([2]; B16F10, 50 µM 2HF): 1.0 | Procaspase 3 band intensity ratio to control (normalized against β-Actin) ([2]; B16F10, 50 µM 2HF): 0.9 | RAL BP-1 band intensity ratio to control (normalized against β-Actin) ([2]; B16F10, 50 µM 2HF): 0.5 | Raf-1 band intensity ratio to control (normalized against β-Actin) ([2]; B16F10, 50 µM 2HF): 0.5 | PKC α band intensity ratio to control (normalized against β-Actin) ([2]; B16F10, 100 µM 2HF): 0.2 | Procaspase 3 band intensity ratio to control (normalized against β-Actin) ([2]; B16F10, 100 µM 2HF): 0.1 | TNF-α band intensity ratio to control (normalized against β-Actin) ([2]; B16F10, 100 µM 2HF): 0.3 | Active caspase 3 band intensity ratio to control (normalized against β-Actin) ([3]; SK-Mel-24, 50 µM 2HF): 0.9 | C-terminal cleaved PARP~89kDa band intensity ratio to control (normalized against β-Actin) ([3]; SK-Mel-24, 50 µM 2HF): 0.8 | Caspase 9 band intensity ratio to control (normalized against β-Actin) ([3]; SK-Mel-24, 50 µM 2HF): 1.2 | N-terminal cleaved PARP~24kDa band intensity ratio to control (normalized against β-Actin) ([3]; SK-Mel-24, 50 µM 2HF): 0.8 | PARP-1 band intensity ratio to control (normalized against β-Actin) ([3]; SK-Mel-24, 50 µM 2HF): 0.7 | Procaspase 3 band intensity ratio to control (normalized against β-Actin) ([3]; SK-Mel-24, 50 µM 2HF): 0.8 | RAL BP-1 band intensity ratio to control (normalized against β-Actin) ([3]; SK-Mel-24, 50 µM 2HF): 0.4 | Raf-1 band intensity ratio to control (normalized against β-Actin) ([3]; SK-Mel-24, 50 µM 2HF): 1.7 | TNF-α band intensity ratio to control (normalized against β-Actin) ([3]; SK-Mel-24, 50 µM 2HF): 0.4 | p-PDGFR-β band intensity ratio to control (normalized against β-Actin) ([3]; SK-Mel-24, 50 µM 2HF): 0.7 | Active caspase 3 band intensity ratio to control (normalized against β-Actin) ([3]; SK-Mel-24, 100 µM 2HF): 1.1 | C-terminal cleaved PARP~89kDa band intensity ratio to control (normalized against β-Actin) ([3]; SK-Mel-24, 100 µM 2HF): 0.9 | Caspase 9 band intensity ratio to control (normalized against β-Actin) ([3]; SK-Mel-24, 100 µM 2HF): 0.5 | N-terminal cleaved PARP~24kDa band intensity ratio to control (normalized against β-Actin) ([3]; SK-Mel-24, 100 µM 2HF): 0.4 | PARP-1 band intensity ratio to control (normalized against β-Actin) ([3]; SK-Mel-24, 100 µM 2HF): 0.1 | Procaspase 3 band intensity ratio to control (normalized against β-Actin) ([3]; SK-Mel-24, 100 µM 2HF): 0.5 | RAL BP-1 band intensity ratio to control (normalized against β-Actin) ([3]; SK-Mel-24, 100 µM 2HF): 0.1 | p-PDGFR-β band intensity ratio to control (normalized against β-Actin) ([3]; SK-Mel-24, 100 µM 2HF): 0.4 | Active caspase 3 band intensity ratio to control (normalized against β-Actin) ([4]; B16F0, 50 µM 2HF): 0.9 | C-terminal cleaved PARP~89kDa band intensity ratio to control (normalized against β-Actin) ([4]; B16F0, 50 µM 2HF): 0.9 | MEKK15 band intensity ratio to control (normalized against β-Actin) ([4]; B16F0, 50 µM 2HF): 1.0 | N-terminal cleaved PARP~24kDa band intensity ratio to control (normalized against β-Actin) ([4]; B16F0, 50 µM 2HF): 0.9 | PARP-1 band intensity ratio to control (normalized against β-Actin) ([4]; B16F0, 50 µM 2HF): 0.9 | PKC α band intensity ratio to control (normalized against β-Actin) ([4]; B16F0, 50 µM 2HF): 0.6 | Procaspase 3 band intensity ratio to control (normalized against β-Actin) ([4]; B16F0, 50 µM 2HF): 1.0 | RAL BP-1 band intensity ratio to control (normalized against β-Actin) ([4]; B16F0, 50 µM 2HF): 0.9 | Raf-1 band intensity ratio to control (normalized against β-Actin) ([4]; B16F0, 50 µM 2HF): 0.2 | TNF-α band intensity ratio to control (normalized against β-Actin) ([4]; B16F0, 50 µM 2HF): 0.4 | p-MEK-1 band intensity ratio to control (normalized against β-Actin) ([4]; B16F0, 50 µM 2HF): 0.8 | p-PDGFR-β band intensity ratio to control (normalized against β-Actin) ([4]; B16F0, 50 µM 2HF): 0.3 | Active caspase 3 band intensity ratio to control (normalized against β-Actin) ([4]; B16F0, 100 µM 2HF): 0.1 | MEKK15 band intensity ratio to control (normalized against β-Actin) ([4]; B16F0, 100 µM 2HF): 4.7 | N-terminal cleaved PARP~24kDa band intensity ratio to control (normalized against β-Actin) ([4]; B16F0, 100 µM 2HF): 0.1 | PARP-1 band intensity ratio to control (normalized against β-Actin) ([4]; B16F0, 100 µM 2HF): 0.8 | PKC α band intensity ratio to control (normalized against β-Actin) ([4]; B16F0, 100 µM 2HF): 0.2 | Procaspase 3 band intensity ratio to control (normalized against β-Actin) ([4]; B16F0, 100 µM 2HF): 0.5 | RAL BP-1 band intensity ratio to control (normalized against β-Actin) ([4]; B16F0, 100 µM 2HF): 0.3 | p-MEK-1 band intensity ratio to control (normalized against β-Actin) ([4]; B16F0, 100 µM 2HF): 0.8
